Values quoted from earlier work, collected in patent US8703753B2, “Use of tellurium compounds for the treatment of actinic keratosis” (Biomas Ltd., priority 2005, dated 2014).
Read-outs that look alike come from different tables or passages of the source.

Experiments:
interferon (IFN) [1] = settings: mice
interferon (IFN) [2] = settings: humans
[3] = rats, intravenous and intramuscular administration

Cl[TeH]1(Cl)(Cl)OCCO1.N [AS101, ammonium trichloro(dioxyethylene-O,O′)tellurate]
activation of interferon (IFN) (interferon (IFN) [1]): potent activator
effect on IL-10 at the m-RNA level (IL-10): inhibit IL-10
activation of interferon (IFN) (interferon (IFN) [2]): potent activator
LD50 relative to the immunologically effective dose [3]: 500-1000 folds
